This is an account of results in patent US6350740B1, “Transplatinum complexes as cytotoxic and anticancer agents” (Virginia Commonwealth University, priority 2000, dated 2002).

Like-named read-outs stand apart in the source and are kept apart here.

By IC50 is commonly meant the point on the concentration scale where inhibition reaches its midpoint.

The subject of series [1] is human foreskin fibroblast (HFF). The experiment in a line: Cytotoxicity by cell proliferation, HFF cells. In kind it is cell-based. The note with it: read-out: IC50 for indicated cell line HFF. How it is done:
(§1) The cytotoxicity of the novel trans-platinum compounds was assayed through the standard protocols of the NCI Developmental Therapeutics (HIV) and NIAID (Herpes Viruses) Screening Programs.
(§2) http://www.niaid.nih.gov/dmid/apdsame.html. IC50 is cytotoxic dose in cell carriers.
(§3) The cytotoxicity of several nucleobase compounds of the general formula SP-4-2-[PtX(L)(L′)(B)]^+ was assessed and the results are given in Table I. The cell lines employed were human foreskin fibroblast (HFF), Daudi, and CEM-SS, a T-cell line typically used to csrry snd maintain human imnmunodefficiency virus (HIV). The lC50 values for HFF and Dsudi cell lines were determined by cell proliferation as referenced above. The IC50 values for the CEM-SS cell line was determined by XTT colorimetric assays as referenced above.

In a further series the test system is Daudi. The experiment in a line: Cytotoxicity by cell proliferation, Daudi cells. In kind it is cell-based. The note with it: read-out: IC50 for indicated cell line Daudi. How it is done: as §1, §2, §3
The test system of the next series is CEM-SS, a T-cell line. The experiment in a line: Cytotoxicity by XTT colorimetric assay, CEM-SS cells. In kind it is cell-based. The note with it: read-out: IC50 for indicated cell line CEM-SS. How it is done: as §1, §2, §3
For orientation: Tetrazolium dyes change colour on reduction, which living cells bring about.

Series [2] in a line: Water-solubility compared with the parent compound. In kind it is physicochemical. Particulars: statement in words, no values.
The subject of series [3] is L1210 Leukemia. The note with it: for in vivo antitumor activity: murine L1210 leukemia. An excerpt: b: %T/C is % average survival in days of treated animals/average survival in days of control animals. All tests performed as reported in references in a above. 50×3 refers to dose (mg/kg) and schedule (drug injection at 1,5,9 days after tumor inoculation).
Another series concerns A 2780. The note with it: A 2780 cells.
Series [4] concerns L1210 Leukemia. The note with it: murine L1210 leukemia; J. Med. Chem. 32:2240; cited from earlier work.

Consider `CCn1c[n+]([Pt-2]([NH2])([Cl])[n+]2ccsc2)c2c(=O)[nH]c(N)nc21` (centres unmarked) [Compound 2, SP-4-2-[PtCl(9-ethylguanine)(NH3)(thiazole)]^+], for which the IC50 in series [1] turned out to be 11.2 µM; in the series with Daudi, 18.1 µM; in the series with CEM-SS, a T-cell line (first CEM-SS column), 47.3 µM; with CEM-SS, a T-cell line (second CEM-SS column), 24.6 µM.

As to `CCn1c[n+]([Pt-2]([NH2])([NH3+])[Cl])c2c(=O)[nH]c(N)nc21` (stereo not drawn) [Compound 1, trans-[PtCl(9-ethylguanine)(NH3)2]^+], the IC50 was determined as 18.9 µM in series [1] and 7.9 µM with Daudi.

In the case of `CCn1c[n+]([Pt-2]([NH2])([Cl])[n+]2cccc3ccccc32)c2c(=O)[nH]c(N)nc21` (centres unmarked) [Compound 4], the IC50 in series [1] amounted to 25.9 µM; with Daudi it was 0.93 µM; in the series with CEM-SS, a T-cell line (first CEM-SS column), 47.4 µM; in the series on CEM-SS, a T-cell line (second CEM-SS column) it was 31.7 µM.

As to “trans-[PtCl(1-methylcytosine)(NH3)2]^+ [Compound 7]”, the IC50 in series [1] is > 45.2 µM; in the series with Daudi it was 15 µM.

On to `CCn1c[n+]([Pt-2]([Cl])([n+]2ccc(C)cc2)[n+]2ccc(C)cc2)c2c(=O)[nH]c(N)nc21` [Compound 6, trans-[PtCl(9-ethylguanine) (4-picoline)2]^+], for which the IC50 in series [1] turned out to be 21.7 µM; in the series with Daudi, 0.92 µM; in the series on CEM-SS, a T-cell line (first CEM-SS column), 1.9 µM; in the series on CEM-SS, a T-cell line (second CEM-SS column), 2 µM. Further, the “water-solubility and bioavailability versus parent trans-[PtCl2(4-pic)2]” value in series [2] is “significant water-solubility and bioavailability over the parent compound”.

In the case of trans-[PtCl(Me2SO)(pyridine)2]^+, the “L1210 Leukemia % T/C” value in the series with L1210 Leukemia [3] (50 × 3: 50 mg/kg, injection at 1,5,9 days after tumor inoculation, T/C >150% indicative of activity) was 155 (50 × 3) %. For the same compound, the “in vivo antitumor activity” value in the series with L1210 Leukemia [3] is reported as “some antitumor activity”. Moreover, the “A 2780 IC50” value in the series on A 2780 is 0.3 µg/mL.

As to `Cn1ccc(N)[n+]([Pt-2]([NH2])([Cl])[n+]2cccc3ccccc32)c1=O` (centres unmarked) [Compound 9, SP-4-2-[PtCl(1-methylcytosine)(NH3)(quinoline)]^+], the IC50 is 38.7 µM in series [1]; 14.1 µM with Daudi; 50.4 µM with CEM-SS, a T-cell line (first CEM-SS column); 33.2 µM in the series with CEM-SS, a T-cell line (second CEM-SS column).

In the case of “SP-4-2-[PtCl(9-ethylguanine) (NH3)(benzothiazole)]^+ [Compound 3]”, the results for the IC50 (in series [1]; with Daudi) were 11.2 µM and 9.8 µM, respectively.

Consider `[Cl][Pt][Cl].c1ccncc1.c1ccncc1` [trans-[PtCl2(pyridine)2], reference compound], for which the “L1210 Leukemia % T/C” value with L1210 Leukemia [3] (50 × 2: 50 mg/kg, injected twice only) is given as 106 (50 × 2) %. Further, the “in vivo antitumor activity” value with L1210 Leukemia [3] is “no activity”. Also, in the series with A 2780, the “A 2780 IC50” value was determined as 0.2 µg/mL. The “in vivo antitumor activity, previously reported” value with L1210 Leukemia [4] was “totally inactive”.

On to “SP-4-2-[PtCl(1-methylcytosine)(NH3)(thiazole)] [Compound 8]”, for which the IC50 in series [1] is > 52 µM.

With `Cn1ccc(N)[n+]([Pt-2]([NH2])([Cl])[n+]2ccc3ccccc3c2)c1=O` (centres unmarked) [Compound 10, SP-4-2-[PtCl(1-methylcytosine)(NH3)(isoquinoline)]^+], the IC50 in series [1] is > 56.4 µM; in the series with Daudi, 21.6 µM.

With `CCn1c[n+]([Pt-2]([NH2])([Cl])[n+]2ccc3ccccc3c2)c2c(=O)[nH]c(N)nc21` (centres unmarked) [Compound 5, SP-4-2-[PtCl(9-ethylguanine)(NH3)(isoquinoline)]^+], the IC50 in series [1] turned out to be 2.8 µM; with Daudi, 4.8 µM.
